Data on 2 compounds can be found in patent US20230241063A1, “METHODS OF TREATING PROSTATE CANCER” (Celgene Quanticel Research, Inc., priority 2020, published 2023).

“Also recorded” adds a separate entry of the source. A value given as a limit tells only on which side of the number the result lay.

Test [1] deals with LNCaP-AR CRISPRi TP53/RB1 cells. Put plainly: Proliferation assay (Cell Titer-Glo) in LNCaP-AR CRISPRi TP53/RB1 cells. It is filed as cell-based, human. Particulars: single agents, 6 days, LNCaP_AR guideTP53/RB1 cells. On the technique in general: ATP-based viability assays read luminescence as a measure of living cells.
Test [2] deals with LNCaP-AR cells. In words: Proliferation assay (Cell Titer-Glo) in LNCaP-AR cells. It is filed as cell-based, human. Particulars: single agent, 3 days.
The test system of test [3] is VCaP cells. Put plainly: Proliferation assay (Cell Titer-Glo) in VCaP cells. The format is cell-based, human. Particulars: 3 days; enzalutamide 10 uM in the combination.
Test [4] has as its system DKO cells. In words: Proliferation assay (Cell Titer-Glo) in DKO cells. It is filed as cell-based, mouse. Particulars: Compound A alone.
In test [5] the test system is Krt8. In words: Krt8 gene expression by qPCR in DKO cells. The format is cell-based, mouse. The note with it: 8 days, enzalutamide 10 uM in the combination. (In general: In qPCR the cycle at which signal appears reflects the starting amount.)
For test [6], the system named is TKO cells. In words: Proliferation assay (Cell Titer-Glo) in TKO cells. It is filed as cell-based, mouse. The note with it: Compound A alone.
The test system of test [7] is PC3 cells. Put plainly: Proliferation assay (Cell Titer-Glo) in PC3 cells. The format is cell-based, human. The note with it: single agent, 3 days, CellTiter Glo.
Test [8] deals with Krt8. In words: Krt8 gene expression by qPCR in TKO cells. The format is cell-based, mouse. Particulars: single agent, 8 days.
Test [9] has as its system LNCaP cells. In words: Proliferation assay (Cell Titer-Glo) in LNCaP cells. It is filed as cell-based, human. The note with it: single agent, 6 days.

As to `COc1ccc(-c2c(-c3ccc(C#N)c(F)c3)nc(N3CCC(N)CC3)n(C)c2=O)cc1F` [Compound A, 4-[2-(4-amino-piperidin-1-yl)-5-(3-fluoro-4-methoxy-phenyl)-1-methyl-6-oxo-1,6-dihydro-pyrimidin-4-yl]-2-fluoro-benzonitrile], in test [1], the effect on proliferation entry is reported as “do not affect proliferation; also recorded: did not affect proliferation”. In addition, the “effect on cell proliferation” value in [2] is on record as “no effect on cell proliferation”. Besides, the “effect on proliferation of VCaP cells” value in test [3] was “no effect on proliferation; also recorded: did not affect proliferation”. Further, in test [4], the “effect on DKO cell proliferation” value is listed as “mild effect”. Further, the “induction of Keratin8 (Krt8) expression” value in [5] is reported as 1.5 fold. Further, the “effect on TKO cell proliferation” value in test [6] is listed as “mild effect”. In addition, the “effect on cell proliferation of PC3 cells” value in [7] is recorded as “did not affect cell proliferation; also recorded: does not affect cell proliferation”. The “concentration of Compound A able to induce the expression of Krt8” value in test [8] is not below 1 µM. Besides, in test [9], the “effect on proliferation of LNCaP cells” value is “no effect on proliferation; also recorded: did not affect proliferation”.
Take `CNC(=O)c1ccc(N2C(=S)N(c3ccc(C#N)c(C(F)(F)F)c3)C(=O)C2(C)C)cc1F` [enzalutamide, 4-{3-[4-cyano-3-(trifluoromethyl)phenyl]-5,5-dimethyl-4-oxo-2-sulfanylideneimidazolidin-1-yl}-2-fluoro-N-methylbenzamide, reference compound]: the effect on proliferation entry is “do not affect proliferation” in [1] and “did not affect proliferation” in test [1] (listed as ENZA). For the same compound, in [7], the “effect on cell proliferation of PC3 cells” value is reported as “resistant”.
